Results taken from patent US20200277268A1, “PENTAFLUOROPHENYL SULFONAMIDE COMPOUNDS, COMPOSITIONS AND USES THEREOF” (DALRIADA THERAPEUTICS INC., priority 2017, published 2020).
pIC50: −log10 of the molar value.

Experiments:
Format in all cases: cell-based
MOLM13 = experiment: CellTiter-Blue cell viability, MOLM13; settings: Homo sapiens, MOLM-13; AML cell line, 72 hours
Procedure: (§1) The anti-cancer efficacy of exemplary compounds of the application were assessed in vitro against different cancer cell lines. Cell viability was examined following treatment at various concentrations of inhibitor (0.097656-50 μM) using a CellTiter-Blue® cell viability assay. 1×10^4 cells/well were plated in 96-well assay plates in culture medium. All cells were grown in DMEM, IMDM and RPMI-1640 supplemented with 10% fetal bovine serum (FBS). In some instances, FBS was removed for periods ranging from 16-24 hours, and re-introduced with test compound addition. After 24 hrs, test compounds and vehicle controls were added to appropriate wells such that the final volume was 100 μl in each well. The cells were cultured for the desired test exposure period (72 hours) at 37° C. and 5% CO2. The assay plates were removed from 3° C. incubator and 20 μl/well of CellTiter-Blue® Reagent was added. The plates were incubated using standard cell culture conditions for 1-4 hours. Afterwards, the plates were shaken for 10 seconds and florescence was recorded at 560/590 nm using a Cytation 3 spectrophotometer. IC50 values were determined using non-linear regression analysis with GraphPad Prism 6.0 (GraphPad Software Inc.).

GBM8 = experiment: Proliferation of patient derived GBM BTIC line GBM8; settings: 62.5, 125, 250 nM, four days
Procedure: (§2) Glioblastoma (GBM) tumor cells with stem-cell properties termed brain tumor initiating cells (BTICs,) are enriched using serum-free culture. Effects of select exemplary compounds were tested on cell proliferation in patient derived GBM BTIC lines: GBM8 and BT428. GBM BTICs were cultured in NeuroCult™ NS-A Proliferation Medium (STEMcell Technologies) supplemented with epidermal growth factor (20 ng/mL), basic fibroblast growth factor (10 ng/mL) and 2 ug/mL of Heparin. The cells were dissociated into single cells and viable cells sorted into 96 well plate at a density of 1000 cells/well. The cells were then treated with varying doses of selected compounds (250 nM, 125 nM, 62.5 nM) with three technical replicates per dilution. DMSO was used as control. Four days following the addition of compounds, the proliferative capacity of GBM BTICs was assessed using PrestoBlue Cell Viability reagent (Invitrogen).

[1] = system: primary human fibroblast cells (PHF); experiment: CellTiter-Blue cell viability, PHF; settings: non-cancerous, 72 hours
Procedure: as §1

MV4-11 = experiment: CellTiter-Blue cell viability, MV4-11; settings: Homo sapiens, MV4-11; AML cell line, 72 hours
Procedure: as §1

[2] = system: healthy human lung cells (MRC9); experiment: CellTiter-Blue cell viability, MRC9; settings: non-cancerous, 72 hours
Procedure: as §1

BT428 = experiment: Proliferation of patient derived GBM BTIC line BT428; settings: 62.5, 125, 250 nM, four days
Procedure: as §2

| pIC50 (MOLM13) | pIC50 (MV4-11) | Structure (SMILES) | effect on cell proliferation in GBM8 (GBM8) | pIC50 [1] | pIC50 [2] | effect on cell proliferation in BT428 (BT428) |
| --- | --- | --- | --- | --- | --- | --- |
| 5.54 | 5.77 | O=S(=O)(c1c(F)c(F)c(F)c(F)c1F)N(Cc1ncc(F)cc1F)C1CC1 [Compound I-37, N-cyclopropyl-N-((3,5-difluoropyridin-2-yl)methyl)-2,3,4,5,6-pentafluorobenzenesulfonamide] | show potency | 5.06 | 4.66 | – |
| 5.39 | 5.78 | O=S(=O)(c1c(F)c(F)c(F)c(F)c1F)N(Cc1ncccc1C(F)(F)F)C1CC1 [Compound I-43, N-cyclopropyl-2,3,4,5,6-pentafluoro-N-((3-(trifluoromethyl)pyridin-2-yl)methyl)benzenesulfonamide] | – | – | 5.08 | show potency |
